# Experimental data reported in PMC9289666, “Highly Parallelized, Multicolor Optogenetic Recordings of Cellular Activity for Therapeutic Discovery Applications in Ion Channels and Disease-Associated Excitable Cells” (Frontiers in Molecular Neuroscience, 2022).
# Read-outs that look alike come from different tables or passages of the source.
# Columns and labels:
# [1] = target: T1, human Nav.1.7 (Homo sapiens, UniProt Q15858); assay: Nav1.7 spiking HEK assay on Swarm; type: cell-based
# T1 construct: expressed in transfected cells
# T1 sequence (Q15858 whole entry): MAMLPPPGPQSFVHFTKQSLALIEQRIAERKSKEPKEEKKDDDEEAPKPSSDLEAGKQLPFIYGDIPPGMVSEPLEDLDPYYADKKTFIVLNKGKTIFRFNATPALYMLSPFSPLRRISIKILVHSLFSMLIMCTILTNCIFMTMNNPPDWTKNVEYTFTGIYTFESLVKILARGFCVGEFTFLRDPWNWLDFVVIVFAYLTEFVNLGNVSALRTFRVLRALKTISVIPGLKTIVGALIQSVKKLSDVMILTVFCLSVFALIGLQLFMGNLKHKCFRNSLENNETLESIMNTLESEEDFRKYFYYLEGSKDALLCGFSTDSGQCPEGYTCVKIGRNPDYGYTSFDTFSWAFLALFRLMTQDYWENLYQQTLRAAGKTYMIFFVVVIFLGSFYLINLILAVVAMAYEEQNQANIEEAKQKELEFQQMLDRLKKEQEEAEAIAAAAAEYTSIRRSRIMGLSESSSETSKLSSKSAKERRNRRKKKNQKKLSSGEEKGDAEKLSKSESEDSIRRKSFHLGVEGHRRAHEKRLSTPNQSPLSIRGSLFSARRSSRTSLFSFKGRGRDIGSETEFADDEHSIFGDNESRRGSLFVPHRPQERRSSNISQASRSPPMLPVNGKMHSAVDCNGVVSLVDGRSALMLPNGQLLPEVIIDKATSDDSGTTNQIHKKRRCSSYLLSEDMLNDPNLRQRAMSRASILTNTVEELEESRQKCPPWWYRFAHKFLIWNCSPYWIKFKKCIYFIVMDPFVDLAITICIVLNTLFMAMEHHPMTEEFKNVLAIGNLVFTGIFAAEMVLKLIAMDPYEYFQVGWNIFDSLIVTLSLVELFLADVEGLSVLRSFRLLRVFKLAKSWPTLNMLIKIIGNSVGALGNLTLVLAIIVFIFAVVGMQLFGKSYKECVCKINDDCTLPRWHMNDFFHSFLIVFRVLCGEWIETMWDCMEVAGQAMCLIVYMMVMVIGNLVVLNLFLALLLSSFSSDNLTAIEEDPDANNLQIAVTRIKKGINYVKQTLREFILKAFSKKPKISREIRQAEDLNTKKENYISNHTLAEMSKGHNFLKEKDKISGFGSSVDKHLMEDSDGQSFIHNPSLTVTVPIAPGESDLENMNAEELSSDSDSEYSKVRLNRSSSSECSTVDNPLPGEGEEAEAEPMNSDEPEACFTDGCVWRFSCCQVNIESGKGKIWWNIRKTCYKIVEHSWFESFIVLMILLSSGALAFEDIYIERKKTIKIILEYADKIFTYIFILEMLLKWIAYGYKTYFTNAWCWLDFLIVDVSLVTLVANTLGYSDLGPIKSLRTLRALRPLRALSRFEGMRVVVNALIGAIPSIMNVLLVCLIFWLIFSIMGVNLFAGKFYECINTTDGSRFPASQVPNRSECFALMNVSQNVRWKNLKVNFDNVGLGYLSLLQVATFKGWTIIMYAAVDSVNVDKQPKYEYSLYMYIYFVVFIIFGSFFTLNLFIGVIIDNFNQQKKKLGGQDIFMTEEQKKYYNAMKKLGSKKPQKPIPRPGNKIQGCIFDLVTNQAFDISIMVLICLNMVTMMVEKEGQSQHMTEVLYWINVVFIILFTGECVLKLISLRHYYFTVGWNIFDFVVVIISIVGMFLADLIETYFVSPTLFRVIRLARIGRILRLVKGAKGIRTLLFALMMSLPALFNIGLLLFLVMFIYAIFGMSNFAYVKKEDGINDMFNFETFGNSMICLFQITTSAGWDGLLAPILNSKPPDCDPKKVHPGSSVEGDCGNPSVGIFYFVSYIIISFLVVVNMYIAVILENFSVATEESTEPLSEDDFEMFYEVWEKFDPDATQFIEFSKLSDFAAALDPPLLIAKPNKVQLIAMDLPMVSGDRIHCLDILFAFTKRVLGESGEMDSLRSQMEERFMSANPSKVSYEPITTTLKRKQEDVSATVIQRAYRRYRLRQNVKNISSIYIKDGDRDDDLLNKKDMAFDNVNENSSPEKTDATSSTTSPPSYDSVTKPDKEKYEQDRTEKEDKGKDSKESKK
# [2] = system: Nav1.5; settings: cited from earlier work
# [3] = normalized mean spike amplitude score, Prestwick library compounds
# [4] = read-out: Nav1.5 Ionworks (IC50), automated patch clamp, literature reported, ref Harmer et al., 2011
# [5] = compounds at 1 μM, cutoff 0.5 mean spike amplitude
SMILES,"Nav1.7 Swarm (score at 3 µM) [1, 3]","IC50 [2, 4]",further results
CC(C)NC[C@@H](O)COc1cccc2ccccc12 [(R)-Propranolol],0.63,–,IC50 [2]: 7.5 µM
Nc1c(Br)cc(Br)cc1CN[C@H]1CC[C@H](O)CC1 [Ambroxol],0.80,15.2 µM,–
CCCCc1oc2ccccc2c1C(=O)c1cc(I)c(OCCN(CC)CC)c(I)c1 [Amiodarone],–,–,Nav1.7 Swarm (score at 3 µM) [1]: 0.52
CCN(CC)Cc1cc(Nc2ccnc3cc(Cl)ccc23)ccc1O [Amodiaquin],0.95,9.7 µM,–
Clc1ccc2c(c1)C(N1CCNCC1)=Nc1ccccc1O2 [Amoxapine],–,5.8 µM,–
COc1ccc(CCN2CCC(Nc3nc4ccccc4n3Cc3ccc(F)cc3)CC2)cc1 [Astemizole],0.01,2.3 µM,–
CC(C)COCC(CN(Cc1ccccc1)c1ccccc1)N1CCCC1 (stereo not drawn) [Bepridil],–,–,IC50 [2]: 1.9 µM
CCN(CC)CCNC(=O)c1cc(Br)c(N)cc1OC [Bromopride],0.92,41.4 µM,–
CCCCN1CCCCC1C(=O)Nc1c(C)cccc1C (stereo not drawn) [Bupivacaine],0.27,4.3 µM,–
CC(NC(C)(C)C)C(=O)c1cccc(Cl)c1 (stereo not drawn) [Bupropion],0.97,76.2 µM,–
O=C1CC2(CCCC2)CC(=O)N1CCCCN1CCN(c2ncccn2)CC1 [Buspirone],0.97,125 µM,–
O=C(N[C@H](CO)[C@H](O)c1ccc([N+](=O)[O-])cc1)C(Cl)Cl [Chloramphenicol],1.07,215 µM,–
CCN(CC)CCCC(C)Nc1ccnc2cc(Cl)ccc12 (stereo not drawn) [Chloroquine],–,–,Nav1.7 Swarm (score at 3 µM) [1]: 0.98; IC50 [2]: 36.5 µM
CN(C)CCCN1c2ccccc2Sc2ccc(Cl)cc21 [Chlorpromazine],0.32,2.8 µM,–
CN(C)CCCC1(c2ccc(F)cc2)OCc2cc(C#N)ccc21 (stereo not drawn) [Citalopram],0.92,14.7 µM,–
CN(C)CCCN1c2ccccc2CCc2ccc(Cl)cc21 [Clomipramine],–,2.6 µM,Hit identification in Prestwick Chemical Library pilot screen [1]: hits; Nav1.7 Swarm (score at 3 µM) [1]: 0.20
CN1CCN(C2=Nc3cc(Cl)ccc3Nc3ccccc32)CC1 [Clozapine],0.74,11.6 µM,–
CN1CCC(=C2c3ccccc3C=Cc3ccccc32)CC1 [Cyproheptadine],0.44,6.1 µM,–
CNCCCN1c2ccccc2CCc2ccccc21 [Desipramine],0.38,2.4 µM,"Hit identification in Prestwick Chemical Library pilot screen [1, 5]: hits"
COc1ccc([C@@H]2Sc3ccccc3N(CCN(C)C)C(=O)[C@@H]2OC(C)=O)cc1 [Diltiazem],0.82,14.2 µM,–
OCCN(CCO)c1nc(N2CCCCC2)c2nc(N(CCO)CCO)nc(N3CCCCC3)c2n1 [Dipyridamole],0.92,19.3 µM,–
CC(C)N(CCC(C(N)=O)(c1ccccc1)c1ccccn1)C(C)C (stereo not drawn) [Disopyramide],0.94,302 µM,–
O=c1[nH]c2ccccc2n1CCCN1CCC(n2c(=O)[nH]c3cc(Cl)ccc32)CC1 [Domperidone],0.53,5.6 µM,–
C=C1C[C@@H]2[C@H](CC[C@]3(C)C(=O)CC[C@@H]23)[C@@]2(C)C=CC(=O)C=C12 [Exemestane],0.90,71.3 µM,–
O=C(NCC1CCCCN1)c1cc(OCC(F)(F)F)ccc1OCC(F)(F)F (stereo not drawn) [Flecainide],0.72,5.8 µM,–
Fc1ccc(C(c2ccc(F)cc2)N2CCN(C/C=C/c3ccccc3)CC2)cc1 [Flunarizine],0.16,2.6 µM,–

SMILES,"Nav1.7 Swarm (score at 3 µM) [1, 3]","IC50 [2, 4]",further results
CNCCC(Oc1ccc(C(F)(F)F)cc1)c1ccccc1 (stereo not drawn) [Fluoxetine],–,4.9 µM,Nav1.7 Swarm (score at 3 µM) [1]: 0.64
OCCN1CCN(CCCN2c3ccccc3Sc3ccc(C(F)(F)F)cc32)CC1 [Fluphenazine],0.31,8 µM,–
O=C(CCCN1CCC(O)(c2ccc(Cl)cc2)CC1)c1ccc(F)cc1 [Haloperidol],-0.09,2.3 µM,–
OCCOCCN1CCN(C(c2ccccc2)c2ccc(Cl)cc2)CC1 (stereo not drawn) [Hydroxyzine],0.56,32.8 µM,–
CN(C)CCCN1c2ccccc2CCc2ccccc21 [Imipramine],0.35,–,"Hit identification in Prestwick Chemical Library pilot screen [1, 5]: hits"
CC(=O)N1CCN(c2ccc(OCC3COC(Cn4ccnc4)(c4ccc(Cl)cc4Cl)O3)cc2)CC1 (stereo not drawn) [Ketoconazole],0.96,44.9 µM,–
CCN(CC)CC(=O)Nc1c(C)cccc1C [Lidocaine],–,–,"Nav1.7 Swarm (score at 3 µM) [1]: 0.91; IC50 ([1]; 8 mM bath [K+], mean spike amplitude across all test pulses): 15 µM"
CC(Oc1c(Cl)cccc1Cl)C1=NCCN1 (stereo not drawn) [Lofexidine],0.88,27.2 µM,–
CN(C)C(=O)C(CCN1CCC(O)(c2ccc(Cl)cc2)CC1)(c1ccccc1)c1ccccc1 [Loperamide],–,–,Nav1.7 Swarm (score at 3 µM) [1]: 0.04; IC50 [2]: 2.9 µM
CCOC(=O)N1CCC(=C2c3ccc(Cl)cc3CCc3cccnc32)CC1 [Loratadine],0.62,–,–
CC12CC3CC(C)(C1)CC(N)(C3)C2 [Memantine],0.98,92.6 µM,–
Cc1cccc(C)c1NC(=O)C1CCCCN1C (stereo not drawn) [Mepivacaine],0.96,81.4 µM,–
CN1CCCCC1CCN1c2ccccc2Sc2ccc([S+](C)[O-])cc21 (stereo not drawn) [Mesoridazine],0.40,7.2 µM,–
CC#C[C@]1(O)CC[C@H]2[C@@H]3CCC4=CC(=O)CCC4=C3[C@@H](c3ccc(N(C)C)cc3)C[C@@]21C [Mifepristone],0.97,25.8 µM,–
COc1c(N2C[C@@H]3CCCN[C@@H]3C2)c(F)cc2c(=O)c(C(=O)O)cn(C3CC3)c12 [Moxifloxacin],1.06,–,–
COC(=O)C1=C(C)NC(C)=C(C(=O)OC)C1c1ccccc1[N+](=O)[O-] [Nifedipine],0.97,–,–
Cc1cc2c(s1)Nc1ccccc1N=C2N1CCN(C)CC1 [Olanzapine],–,–,Nav1.7 Swarm (score at 3 µM) [1]: 1.09
CCN(CC)CCNC(=O)c1ccc(N)cc1 [Procainamide],1.00,–,–
CCCNCC(O)COc1ccccc1C(=O)CCc1ccccc1 (stereo not drawn) [Propafenone],0.20,–,–
C=C[C@H]1C[N@@]2CC[C@H]1C[C@@H]2[C@@H](O)c1ccnc2ccc(OC)cc12 [Quinidine],–,9.7 µM,–
Nc1nc2ccc(OC(F)(F)F)cc2s1 [Riluzole],0.14,–,–
Cc1nc2n(c(=O)c1CCN1CCC(c3noc4cc(F)ccc34)CC1)CCCC2 [Risperidone],–,–,Nav1.7 Swarm (score at 3 µM) [1]: 0.89
CN[C@H]1CC[C@@H](c2ccc(Cl)c(Cl)c2)c2ccccc21 [Sertraline],–,–,Nav1.7 Swarm (score at 3 µM) [1]: 0.87
CC(C)(C)c1ccc(C(O)CCCN2CCC(C(O)(c3ccccc3)c3ccccc3)CC2)cc1 (stereo not drawn) [Terfenadine],0.39,–,–
CN(C)CCC=C1c2ccccc2COc2ccccc21 [doxepin],–,–,"Hit identification in Prestwick Chemical Library pilot screen [1, 5]: hits"
CCc1nn(CCCN2CCN(c3cccc(Cl)c3)CC2)c(=O)n1CCOc1ccccc1 [nefazodone],–,–,"Hit identification in Prestwick Chemical Library pilot screen [1, 5]: hits"
